In one assay the test system is HeLa. Description: Cell growth inhibition assay (SRB), HeLa. To be noted: HeLa (cervix), 96 hours. Type of assay: cell-based, Human. An excerpt: (§1) Cancer cells used in this study to determine the effect of quinazoline compounds were obtained from the following sources: Human OVCAR-3 (ovary), MCF-7 (breast, hormone-dependent), Hs 578T (breast), MDA-MB-231 (breast), HeLa (cervix), PC3 (prostate), HepG2 (liver), A549 (lung), Caki-1 (kidney), HT-29 (colon), HCT116 (colon) and PANC-1 (pancreas) from the American Type Culture Collection (ATCC) (Manassas, Va.); U251 (brain) from Riken (Japan); MKN-45 (stomach) from DSMZ (Germany); UMRC2 (kidney) and Lox IMVI (melanoma) from the United States National Cancer Institute (Bethesda, Md.). All cell lines except Hs 578T, MDA-MB-231, HCT116, UMRC2, Caki-1 and PANC-1 were grown in RPMI1640 medium (Invitrogen, Carlsbad, Calif.) supplemented with 10% fetal bovine serum (“FBS”), 1 mM sodium pyruvate, 10 mM HEPES and 100 U/ml penicillin and 100 μg/ml streptomycin (“P/S”). Hs 578T, MDA-MB-231, HCT116, UMRC2, Caki-1 and PANC-1 cells were maintained in Dulbecco's modified Eagle's medium (“DMEM”, Invitrogen) supplemented with 10% FBS, P/S, 10 mM HEPES and 2 mM L-glutamine. All cells were incubated at 37° C. under humidified 5% CO2.
(§2) The growth inhibition of the substituted quinazoline derivative compounds against a variety of human tumor cells was evaluated. The relative importance of particular substituent groups on the compounds was also studied. The substituted quinazoline derivative compounds, prepared as described above, were tested, along with DMSO as a control.
(§3) The growth inhibition assay of various compounds against 15 human tumor cell lines was performed using the Sulforhodamnine B (“SRB”) method (Skehan et al., J. National Cancer Institute, 82: 1107-1112 (1990)). Briefly, exponentially growing tumor cells were seeded into a 96-well plate at a density of 2-3×10^3 cells/well and treated with quinazoline compounds the next day. Triplicate wells were used for each treatment. The cells were. incubated with the various compounds for 96 hours at 37° C. in a humidified 5% CO2 atmosphere. After 96-hour incubation, cells were fixed with 10% trichloroacetic acid (“TCA”), incubated for 1 hour at 4° C., and washed 3 times with tap water. Subsequently cells were stained with 0.4% sulforhodamine B in 1% acetic acid for 30 minutes, washed 4 times with 1% acetic acid, and air-dried again. After 5 minutes agitation in 10 mM Tris solution, the absorbance of each well was measured at 530 nm using Benchmark Plus Microplate reader (Bio-Rad Laboratories, Hercules, Calif.).
(§4) To translate the OD530 values into the number of live cells in each well, the OD530 values were compared to those on standard OD530—versus—cell number curves generated for each cell line. The percent survival was calculated using the formula: % Survival=live cell number [test]/live cell number [control]×100
(§5) The IC50 values were calculated by non-linear regression analysis.

In another assay the test system is PANC-1. Description: Cell growth inhibition assay (SRB), PANC-1. To be noted: PANC-1 (pancreas), 96 hours. Type of assay: cell-based, Human.
Source text: as §1, §2, §3, §4, §5

In another assay the test system is PC3. In words: Cell growth inhibition assay (SRB), PC3. Type of assay: cell-based, Human. To be noted: PC3 (prostate), 96 hours.
Source text: as §1, §2, §3, §4, §5

The next assay relates to MDA-MB-231. Description: Cell growth inhibition assay (SRB), MDA-MB-231. Type of assay: cell-based, Human. To be noted: MDA-MB-231 (breast), 96 hours.
Source text: as §1, §2, §3, §4, §5

A further assay deals with UMRC2. Description: Cell growth inhibition assay (SRB), UMRC2. Type of assay: cell-based, Human. To be noted: UMRC2 (kidney), 96 hours.
Source text: as §1, §2, §3, §4, §5

The subject of another assay is Lox IMVI. In words: Cell growth inhibition assay (SRB), Lox IMVI. Type of assay: cell-based, Human. As to conditions: Lox IMVI (melanoma), 96 hours.
Source text: as §1, §2, §3, §4, §5

The subject of another assay is MKN-45. Description: Cell growth inhibition assay (SRB), MKN-45. As to conditions: MKN-45 (stomach), 96 hours. Type of assay: cell-based, Human.
Source text: as §1, §2, §3, §4, §5

For a further assay, the system named is MCF-7. In words: Cell growth inhibition assay (SRB), MCF-7. Type of assay: cell-based, Human. To be noted: MCF-7 (breast, hormone-dependent), 96 hours.
Source text: as §1, §2, §3, §4, §5

The next assay relates to HT-29. In words: Cell growth inhibition assay (SRB), HT-29. To be noted: HT-29 (colon), 96 hours. Type of assay: cell-based, Human.
Source text: as §1, §2, §3, §4, §5

The test system of a further assay is Caki-1. In words: Cell growth inhibition assay (SRB), Caki-1. As to conditions: Caki-1 (kidney), 96 hours. Type of assay: cell-based, Human.
Source text: as §1, §2, §3, §4, §5

For the next assay, the system named is Hs 578T. In words: Cell growth inhibition assay (SRB), Hs 578T. As to conditions: Hs 578T (breast), 96 hours. Type of assay: cell-based, Human.
Source text: as §1, §2, §3, §4, §5

For a further assay, the system named is A549. In words: Cell growth inhibition assay (SRB), A549. Type of assay: cell-based, Human. As to conditions: A549 (lung), 96 hours.
Source text: as §1, §2, §3, §4, §5

The next assay deals with OVCAR-3. Description: Cell growth inhibition assay (SRB), OVCAR-3. As to conditions: OVCAR-3 (ovary), 96 hours. Type of assay: cell-based, Human.
Source text: as §1, §2, §3, §4, §5

The next assay relates to U251. In words: Cell growth inhibition assay (SRB), U251. Type of assay: cell-based, Human. To be noted: U251 (brain), 96 hours.
Source text: as §1, §2, §3, §4, §5

For the next assay, the system named is HepG2. Description: Cell growth inhibition assay (SRB), HepG2. Type of assay: cell-based, Human. As to conditions: HepG2 (liver), 96 hours, read-out: Inhibition of cell growth (IC50, μM) HepG 2.
Source text: as §1, §2, §3, §4, §5

Assay [1] deals with 15 human tumor cell lines. In words: Cell growth inhibition assay (SRB), summary over the panel of cell lines. Type of assay: cell-based. As to conditions: four of the tested cell lines. An excerpt:
Cancer cells used in this study to determine the effect of quinazoline compounds were obtained from the following sources: Human OVCAR-3 (ovary), MCF-7 (breast, hormone-dependent), Hs 578T (breast), MDA-MB-231 (breast), HeLa (cervix), PC3 (prostate), HepG2 (liver), A549 (lung), Caki-1 (kidney), HT-29 (colon), HCT116 (colon) and PANC-1 (pancreas) from the American Type Culture Collection (ATCC) (Manassas, Va.); U251 (brain) from Riken (Japan); MKN-45 (stomach) from DSMZ (Germany); UMRC2 (kidney) and Lox IMVI (melanoma) from the United States National Cancer Institute (Bethesda, Md.). […]
The growth inhibition of the substituted quinazoline derivative compounds against a variety of human tumor cells was evaluated. […]
The growth inhibition assay of various compounds against 15 human tumor cell lines was performed using the Sulforhodamnine B (“SRB”) method (Skehan et al., J. National Cancer Institute, 82: 1107-1112 (1990)). […] After 5 minutes agitation in 10 mM Tris solution, the absorbance of each well was measured at 530 nm using Benchmark Plus Microplate reader (Bio-Rad Laboratories, Hercules, Calif.). […]
The IC50 values were calculated by non-linear regression analysis. […]

Results on six molecules are retold here after patent US7388014B2, “Quinazoline derivatives and therapeutic use thereof” (Rexahn Pharmaceuticals, Inc., priority 2004, dated 2008).

Each structure is given as a SMILES string.

Consider `c1ccc(CCCCNc2ncnc3cc4[nH]cnc4cc23)cc1` [RX-1842], for which the IC50 in the assay on HeLa was more than 3 µM; with PANC-1 it was more than 3 µM; in the assay with PC3, more than 3 µM; with MDA-MB-231, 0.84 µM; with UMRC2 it was 1.98 µM; with Lox IMVI it was 1.15 µM. Moreover, the IC50 in the assay with MKN-45 is more than 3 µM; in the assay with MCF-7, 1.34 µM; in the assay on HT-29, more than 3 µM; in the assay on Caki-1, more than 3 µM; with Hs 578T, 1.05 µM; in the assay on A549, more than 3 µM. Moreover, the IC50 is more than 3 µM in the assay with OVCAR-3, 1.93 µM in the assay with U251 and 2.47 µM with HepG2.
With `CC(C)Nc1ncnc2cc3[nH]cnc3cc12` [RX-1834], the IC50 in the assay on HeLa is 1.06 µM; in the assay on PANC-1, more than 3 µM; with PC3, 1.03 µM; in the assay on MDA-MB-231 it was 0.53 µM; in the assay on UMRC2, 2.24 µM; in the assay on Lox IMVI it was 0.67 µM. Also, the IC50 was 0.1 µM in the assay on MKN-45; 0.11 µM in the assay on MCF-7; 0.24 µM in the assay on HT-29; 0.65 µM with Caki-1; 0.79 µM in the assay on Hs 578T; 0.66 µM in the assay with A549. For the same molecule, the half-maximal inhibitory concentration (IC50) in [1] was less than 200 nM; in the assay on OVCAR-3 it was 0.48 µM; in the assay on U251 it was 0.13 µM; in the assay on HepG2, 0.18 µM.
With `Cc1cccc2ncnc(NCCc3ccc(F)cc3)c12` [RX-1541], the IC50 in the assay with HeLa was more than 3 µM; in the assay with PANC-1, 0.22 µM; in the assay with PC3, more than 3 µM; in the assay on MDA-MB-231, 0.47 µM; with UMRC2, 0.37 µM; in the assay on Lox IMVI, 2.96 µM. In addition, the IC50 with MKN-45 is more than 3 µM; in the assay on MCF-7 it was 1.26 µM; with HT-29, 1.26 µM; with Caki-1, more than 3 µM; in the assay with Hs 578T it was 0.53 µM; with A549, 1.89 µM. In addition, the values for the IC50 in the assay on OVCAR-3, in the assay on U251 and in the assay on HepG2 were 2.86 µM, 1.78 µM and 0.91 µM, respectively.
As to `Cc1cc(C)c(Nc2ncnc3ccc([N+](=O)[O-])cc23)c(C)c1` [RX-1122], the IC50 in the assay with HeLa is 1.3 µM; in the assay with PANC-1, 1.42 µM; in the assay on PC3 it was 0.88 µM; in the assay with MDA-MB-231, 0.73 µM; in the assay on UMRC2, 1.09 µM; with Lox IMVI, 1.1 µM. In addition, the 50% inhibitory concentration (IC50) in the assay with MKN-45 is 1.33 µM; in the assay with MCF-7, 0.63 µM; with HT-29, 2.55 µM; with Caki-1, 1.11 µM; in the assay on Hs 578T, 1.35 µM; in the assay with A549 it was 2 µM. The figures for the IC50 with OVCAR-3, with U251 and in the assay with HepG2 were 1.01 µM, 0.57 µM and 2.39 µM, respectively.
Turning to `Fc1cc(Cl)ccc1Nc1ncnc2ccc(I)cc12` [RX-1701], the IC50 in the assay on HeLa, with PANC-1, in the assay with PC3, in the assay on MDA-MB-231, with UMRC2 and in the assay with Lox IMVI was more than 3 µM throughout. In addition, the IC50 is more than 3 µM in the assay on MKN-45; 1.36 µM in the assay on MCF-7; more than 3 µM in the assay with HT-29; 2.85 µM with Caki-1; more than 3 µM with Hs 578T; more than 3 µM with A549. The IC50 in the assay on OVCAR-3 was more than 3 µM; with U251 it was 2.19 µM; in the assay on HepG2, 1.16 µM.
Turning to `Cn1cnc2cc3ncnc(NCCc4ccccc4F)c3cc21` [RX-1857], the IC50 in the assay with HeLa, in the assay with PANC-1, in the assay with PC3, in the assay on MDA-MB-231, in the assay with UMRC2 and in the assay on Lox IMVI was more than 3 µM each time. The IC50 in the assay with MKN-45 was more than 3 µM; in the assay with MCF-7, more than 3 µM; in the assay with HT-29, more than 3 µM; in the assay on Caki-1 it was 1.57 µM; in the assay on Hs 578T it was more than 3 µM; in the assay with A549 it was more than 3 µM. The IC50 with OVCAR-3, in the assay on U251 and with HepG2 was more than 3 µM in each case.

Broadly, the IC50 is the concentration that gives 50% inhibition.
